Experimental data from patent publication US6150385A, “1,3,4-thiadiazoles useful for the treatment of CMV infections” (Pharmacia & Upjohn Company, priority 1999, dated 2000).

These compounds were tested against T1, HCMV polymerase (Human cytomegalovirus, UniProt P08546) (assay: HCMV polymerase assay (scintillation proximity assay)). Conditions: percentage of inhibition at 25 μM concentration in CMV polymerase assay.
T1 construct: made in house; host or cells: SF-9 insect cells infected with recombinant baculovirus
T1 sequence (P08546 whole entry): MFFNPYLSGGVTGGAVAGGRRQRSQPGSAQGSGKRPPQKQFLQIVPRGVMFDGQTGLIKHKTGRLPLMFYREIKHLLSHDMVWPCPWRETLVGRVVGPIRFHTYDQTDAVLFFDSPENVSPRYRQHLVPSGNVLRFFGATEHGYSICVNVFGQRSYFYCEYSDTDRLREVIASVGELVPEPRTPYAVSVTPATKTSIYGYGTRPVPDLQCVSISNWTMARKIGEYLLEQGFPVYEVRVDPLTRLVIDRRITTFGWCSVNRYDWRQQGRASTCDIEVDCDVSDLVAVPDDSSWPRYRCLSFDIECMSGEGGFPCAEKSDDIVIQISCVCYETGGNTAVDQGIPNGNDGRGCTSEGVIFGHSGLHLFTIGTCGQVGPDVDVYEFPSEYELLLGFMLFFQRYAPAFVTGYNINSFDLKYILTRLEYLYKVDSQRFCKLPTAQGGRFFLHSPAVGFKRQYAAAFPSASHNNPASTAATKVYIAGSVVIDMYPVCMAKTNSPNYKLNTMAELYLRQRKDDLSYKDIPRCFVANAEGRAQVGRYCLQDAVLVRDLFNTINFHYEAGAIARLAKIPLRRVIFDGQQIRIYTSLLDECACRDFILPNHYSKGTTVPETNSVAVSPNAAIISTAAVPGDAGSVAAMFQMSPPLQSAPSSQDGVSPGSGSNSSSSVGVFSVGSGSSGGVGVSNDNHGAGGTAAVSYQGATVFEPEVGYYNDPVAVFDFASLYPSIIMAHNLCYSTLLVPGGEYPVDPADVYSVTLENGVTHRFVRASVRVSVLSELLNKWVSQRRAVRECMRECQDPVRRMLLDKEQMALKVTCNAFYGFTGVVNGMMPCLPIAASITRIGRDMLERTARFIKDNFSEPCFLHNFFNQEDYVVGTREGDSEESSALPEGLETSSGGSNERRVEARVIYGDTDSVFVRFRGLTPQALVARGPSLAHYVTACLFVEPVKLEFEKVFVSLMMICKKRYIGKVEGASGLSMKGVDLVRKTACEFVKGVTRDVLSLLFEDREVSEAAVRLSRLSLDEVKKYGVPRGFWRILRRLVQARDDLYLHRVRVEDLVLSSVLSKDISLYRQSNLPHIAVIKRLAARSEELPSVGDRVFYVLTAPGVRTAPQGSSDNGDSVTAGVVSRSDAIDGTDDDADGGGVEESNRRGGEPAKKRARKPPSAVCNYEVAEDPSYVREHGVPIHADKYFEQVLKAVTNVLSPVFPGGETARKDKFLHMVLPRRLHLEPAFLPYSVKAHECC
Type: biochemical
Protocol: The compounds of the present invention are tested in an polymerase assay to show activity described below, which is indicative of a compound's activity and thus of its use as an anti-viral agent.
The HCMV polymerase assay is performed using a scintillation proximity assay (SPA) as described in several references, such as N. D. Cook, et al., Pharmaceutical Manufacturing International, pages 49-53 (1992); K. Takeuchi, Laboratory Practice, September issue (1992); U.S. Pat. No. 4,568,649 (1986); which are incorporated by reference herein. Reactions are performed in 96-well plates. The assay is conducted in 100 μl volume with 5.4 mM HEPES (pH 7.5), 11.7 mM KCl, 4.5 mM MgCl2, 0.36 mg/ml BSA, and 90 nM ^3 H-dTTP. Assays are run with and without CHAPS, (3-[(3-Cholamidopropyl)-dimethylammonio]-1-propanesulfonate) at a final concentration of 2 mM. HCMV is diluted in enzyme dilution buffer containing 50% glycerol, 250 mM NaCl, 10 mM HEPES (pH 7.5), 100 μg/ml BSA, and 0.01% sodium azide. The HCMV polymerase, which is expressed in recombinant baculovirus-infected SF-9 cells and purified according to literature procedures, is added at 10% (or 10 μl) of the final reaction volume, i.e., 100 μl. Compounds are diluted in 50% DMSO and 10 μl are added to each well. Control wells contain an equivalent concentration of DMSO. Unless noted otherwise, reactions are initiated via the addition of 6 nM biotinylated poly(dA)-oligo(dT) template/primer to reaction mixtures containing the enzyme, substrate, and compounds of interest. Plates are incubated in a 25° C. or 37° C. H2 O bath and terminated via the addition of 40 μl/reaction of 0.5 M EDTA (pH 8) per well. Reactions are terminated within the time-frame during which substrate incorporation is linear and varied depending upon the enzyme and conditions used, i.e., 30 min. for HCMV polymerase. Ten μl of streptavidin-SPA beads (20 mg/ml in PBS/10% glycerol) are added following termination of the reaction. Plates are incubated 10 min. at 37° C., then equilibrated to room temperature, and counted on a Packard Topcount.
In TABLE 1, "MS" refers to mass spectral data, "% inhib" refers to percentage of inhibition at 25 μM concentration in CMV polymerase assay.

| SMILES | inhibition at 25 µM [%] | % Inhib [%] |
| --- | --- | --- |
| CCOc1ccc2ccccc2c1C(=O)Nc1nnc(NCc2cccnc2)s1 [compound 66, 2-ethoxy-N-{5-[(3-pyridinylmethyl)amino]-1,3,4-thiadiazol-2-yl}-1-naphthamide] | 71.9 | – |
| O=C(/C=C/c1ccccc1Cl)Nc1nnc(NCc2ccc(F)cc2)s1 [compound 67, (E)-3-(2-chlorophenyl)-N-{5-[(4-fluorobenzyl)amino]-1,3,4-thiadiazol-2-yl}-2-propenamide] | 71.7 | – |
| NS(=O)(=O)c1ccc(CCNc2nnc(NC(=O)c3ccc(I)cc3)s2)cc1 [compound 68, N-(5-{[4-(aminosulfonyl)phenthyl]amino}-1,3,4-thiadiazol-2-yl)-4-iodobenzamide] | 71.1 | – |
| CCOc1ccc2ccccc2c1C(=O)Nc1nnc(NCCNc2ccccc2)s1 [compound 69, N-{5-[(2-anilinoethyl)amino]-1,3,4-thiadiazol-2-yl}-2-ethoxy-1-naphthamide] | 70.6 | – |
| CCOc1ccc2ccccc2c1C(=O)Nc1nnc(NCc2ccccn2)s1 [compound 70, 2-ethoxy-N-{5-[(2-pyridinylmethyl)amino]-1,3,4-thiadiazol-2-yl}-1-naphthamide] | 70.4 | – |
| CCOc1ccc2ccccc2c1C(=O)Nc1nnc(NCc2ccc(F)cc2)s1 [compound 71, 2-ethoxy-N-{5-[(4-fluorobenzyl)amino]-1,3,4-thiadiazol-2-yl}-1-naphthamide] | 69.8 | – |
| CCCCCCCC/C=C/CCCCCCCC(=O)Nc1nnc(NCc2cccnc2)s1 [compound 72, (E)-N-{5-[(3-pyridinylmethyl)amino]-1,3,4-thiadiazol-2-yl}-9-octadecenamide] | 69.3 | – |
| O=C(Nc1nnc(NCc2ccc(Cl)c(Cl)c2)s1)c1c(Cl)cccc1Cl [compound 73, 2,6-dichloro-N-{5-[(3,4-dichlorobenzyl)amino]-1,3,4-thiadiazol-2-yl}benzamide] | 69.1 | – |
| N#Cc1ccc(C(=O)Nc2nnc(NCc3ccc(F)cc3)s2)cc1 [compound 74, 4-cyano-N-{5-[(4-fluorobenzyl)amino]-1,3,4-thiadiazol-2-yl}benzamide] | 69 | – |
| O=C(/C=C/c1ccccc1Cl)Nc1nnc(NCCCNC2CCCCC2)s1 [compound 75, (E)-3-(2-chlorophenyl)-N-(5-{[3-(cyclohexylamino)propyl]amino}-1,3,4-thiadiazol-2-yl)-2-propenamide] | 68.8 | – |
| O=C(Nc1nnc(NC2CCCc3ccccc32)s1)c1c(Cl)cccc1Cl (stereo not shown) [compound 76, 2,6-dichloro-N-[5-(1,2,3,4-tetrahydro-1-naphthalenylamino)-1,3,4-thiadiazol-2-yl]benzamide] | 68.5 | – |
| O=C(/C=C/c1ccccc1)Nc1nnc(NCCc2cccs2)s1 [compound 77, (E)-3-phenyl-N-(5-{[2-(2-thienyl)ethyl]amino}-1,3,4-thiadiazol-2-yl)-2-propenamide] | 68.3 | – |
| CCOc1ccc2ccccc2c1C(=O)Nc1nnc(NCc2cccs2)s1 [compound 78, 2-ethoxy-N-{5-[(2-thienylmethyl)amino]-1,3,4-thiadiazol-2-yl}-1-naphthamide] | 68.2 | – |
| CCCCCCCC/C=C/CCCCCCCC(=O)Nc1nnc(NCCC(=O)OC(C)(C)C)s1 [compound 79, tert-butyl-3-({5-[(E)-9-octadecenoylamino]-1,3,4-thiadiazol-2-yl}amino)propanoate] | 68 | – |
| CCCCCCCCCCCNc1nnc(NC(=O)c2cccc([N+](=O)[O-])c2)s1 [compound 80, 3-nitro-N-[5-(undecylamino)-1,3,4-thiadiazol-2-yl]benzamide] | 67.9 | – |
| O=C(/C=C/c1ccccc1)Nc1nnc(NCCCCc2ccccc2)s1 [compound 81, (E)-3-phenyl-N-{5-[(4-phenylbutyl)amino]-1,3,4-thiadiazol-2-yl}-2-propenamide] | 67.9 | – |
| N#Cc1ccc(C(=O)Nc2nnc(NCCc3c[nH]c4ccccc34)s2)cc1 [compound 82, 4-cyano-N-(5-{[2-(1H-indol-3-yl)ethyl]amino}-1,3,4-thiadiazol-2-yl)benzamide] | 67.7 | – |

| SMILES | inhibition at 25 µM [%] | % Inhib [%] |
| --- | --- | --- |
| N#Cc1ccc(C(=O)Nc2nnc(NCC(c3ccccc3)c3ccccc3)s2)cc1 [compound 83, 4-cyano-N-{5-[(2,2-diphenylethyl)amino]-1,3,4-thiadiazol-2-yl}benzamide] | 67.7 | – |
| O=C(Nc1nnc(NCc2ccncc2)s1)c1c(Cl)cccc1Cl [compound 84, 2,6-dichloro-N-{5-[(4-pyridinylmethyl)amino]-1,3,4-thiadiazol-2-yl}benzamide] | 67.6 | – |
| O=C(Nc1nnc(NC2CCN(Cc3ccccc3)CC2)s1)c1ccc2c(c1)C(=O)OC2=O [compound 85, N-{5-[(1-benzyl-4-piperidinyl)amino]-1,3,4-thiadiazol-2-yl}-1,3-dioxo-1,3-dihydro-2-benzofuran-5-carboxamide] | 67.3 | – |
| CCOC(=O)N1CCC(Nc2nnc(NC(=O)c3c(OCC)ccc4ccccc34)s2)CC1 [compound 86, ethyl 4-[(5-{[(2-ethoxy-1-naphthyl)carbonyl]amino}-1,3,4-thiadiazol-2-yl)amino]tetrahydro-1(2H)-pyridinecarboxylate] | 67 | – |
| CC(C)c1cc(C(C)C)c(C(=O)Nc2nnc(NCCCn3ccnc3)s2)c(C(C)C)c1 [compound 87, N-(5-{[3-(1H-imidazol-1-yl)propyl]amino}-1,3,4-thiadiazol-2-yl)-2,4,6-triisopropylbenzamide] | 67 | – |
| NS(=O)(=O)c1ccc(CNc2nnc(NC(=O)/C=C/c3ccccc3Cl)s2)cc1 [compound 88, (E)-N-(5-{[4-(aminosulfonyl)benzyl]amino}-1,3,4-thiadiazol-2-yl)-3-(2-chlorophenyl)-2-propenamide] | 66.5 | – |
| CCOc1ccc2ccccc2c1C(=O)Nc1nnc(NCCc2c[nH]cn2)s1 [compound 89, 2-ethoxy-N-(5-{[2-(1H-imidazol-4-yl)ethyl]amino}-1,3,4-thiadiazol-2-yl)-1-naphthamide] | 66.3 | – |
| O=C(Nc1nnc(NCCc2c[nH]c3ccccc23)s1)c1ccc(S(=O)(=O)F)cc1 [compound 90, 4-{[(5-{[2-(1H-indol-3-yl)ethyl]amino}-1,3,4-thiadiazol-2-yl)amino]carbonyl}benzenesulfonyl fluoride] | – | 66.1 |
| CCCCCCCC/C=C/CCCCCCCC(=O)Nc1nnc(NC2CCN(C(=O)OCC)CC2)s1 [compound 91, ethyl 4-({5-[(E)-9-octadecenoylamino]-1,3,4-thiadiazol-2-yl}amino)tetrahydro-1(2H)-pyridinecarboxylate] | 66.1 | – |
| O=C(Nc1nnc(NCCc2cccs2)s1)c1c(Cl)cccc1Cl [compound 92, 2,6-dichloro-N-(5-{[2-(2-thienyl)ethyl]amino}-1,3,4-thiadiazol-2-yl)benzamide] | 66.1 | – |
| CCOc1ccc2ccccc2c1C(=O)Nc1nnc(NC2CCCc3ccccc32)s1 (stereo not shown) [compound 93, 2-ethoxy-N-[5-(1,2,3,4-tetrahydro-1-naphthaienylamino)-1,3,4-thiadiazol-2-yl]-1-naphthamide] | 66 | – |
| O=C(/C=C/c1ccccc1)Nc1nnc(NCc2ccncc2)s1 [compound 94, (E)-3-phenyl-N-{5-[(4-pyridinylmethyl)amino]-1,3,4-thiadiazol-2-yl}-2-propenamide] | 65.9 | – |
| CCOc1ccc2ccccc2c1C(=O)Nc1nnc(NC2CCc3ccccc32)s1 (stereo not shown) [compound 95, N-[5-(2,3-dihydro-1H-inden-1-ylamino)-1,3,4-thiadiazol-2-yl]-2-ethoxy-1-naphthamide] | 65.9 | – |
| O=C(Nc1nnc(NCc2ccc3c(c2)OCO3)s1)c1c(Cl)cccc1Cl [compound 96] | 65.9 | – |
| CCOc1ccc2ccccc2c1C(=O)Nc1nnc(NCCc2cccs2)s1 [compound 97, 2-ethoxy-N-(5-{[2-(2-thienyl)ethyl]amino}-1,3,4-thiadiazol-2-yl)-1-naphthamide] | 65.8 | – |
| O=C(/C=C/c1ccccc1Cl)Nc1nnc(NCCc2c[nH]cn2)s1 [compound 98, (E)-3-(2-chlorophenyl)-N-(5-{[2-(1H-imidazol-4-yl)ethyl]amino}-1,3,4-thiadiazol-2-yl)-2-propenamide] | 65.7 | – |
| O=C(Nc1nnc(NCCCn2ccnc2)s1)c1c(Cl)cccc1Cl [compound 99, 2,6-dichloro-N-(5-{[3-(1H-imidazol-1-yl)propyl]amino}-1,3,4-thiadiazol-2-yl)benzamide] | 65.6 | – |
